Test system: A549 cells
Assay: Cytotoxicity by standard MTT assay
Format: cell-based, human
Conditions: summary statement
Method: FIG. 22 (A) Two-photon microscopy images of live HeLa cells stained with 2 μM IVP-02 for 30 min. λex=800 nm, λem=495-540 nm. Scale bar=20 μm. (B) Viability of A549 cells after incubation with IVP-02, 04, 06, 22, 42, and 62 at different concentrations for 24 h.
The potential long-term cytotoxicity of bioprobes should be carefully considered for imaging in live cells. Then we studied the cytotoxicity of these IVP molecules to live A549 cells by standard MTT assay. […] While the incubation concentration is 10 μM, the cell viability was between 60% and 80%, showing certain cytotoxicity. Nonetheless, all cell imaging experiments in this work were conducted at low concentration 2 μM, which is reasonable and acceptable.

## CC[n+]1ccc(/C=C/c2c[nH]c3ccccc23)cc1 [IVP-02]
  cytotoxicity: low cytotoxicity

— patent US11965100B2, “Aggregation-induced emission luminogens useful for cancer cell discrimination and monitoring” (The Hong Kong University of Science and Technology, priority 2020, dated 2024)
